Experimental data reported in ChEMBL document CHEMBL1201862, “PubChem BioAssay data set” (2004).
Blank lines part the entries; values can stand above or below the compound they belong to. Active and inactive are the calls of the source.

Legend:
[1] = target: G-protein coupled receptor 55 (Homo sapiens, UniProt Q9Y2T6); assay: GPR55 agonists via beta-arrestin recruitment, primary screen, imaging, U2OS cells, beta-arrestin-GFP redistribution (AID 1961); format: functional
[2] = target: T1, Histone-lysine N-methyltransferase NSD2 (Homo sapiens, UniProt O96028); format: biochemical
T1 sequence (O96028 whole entry): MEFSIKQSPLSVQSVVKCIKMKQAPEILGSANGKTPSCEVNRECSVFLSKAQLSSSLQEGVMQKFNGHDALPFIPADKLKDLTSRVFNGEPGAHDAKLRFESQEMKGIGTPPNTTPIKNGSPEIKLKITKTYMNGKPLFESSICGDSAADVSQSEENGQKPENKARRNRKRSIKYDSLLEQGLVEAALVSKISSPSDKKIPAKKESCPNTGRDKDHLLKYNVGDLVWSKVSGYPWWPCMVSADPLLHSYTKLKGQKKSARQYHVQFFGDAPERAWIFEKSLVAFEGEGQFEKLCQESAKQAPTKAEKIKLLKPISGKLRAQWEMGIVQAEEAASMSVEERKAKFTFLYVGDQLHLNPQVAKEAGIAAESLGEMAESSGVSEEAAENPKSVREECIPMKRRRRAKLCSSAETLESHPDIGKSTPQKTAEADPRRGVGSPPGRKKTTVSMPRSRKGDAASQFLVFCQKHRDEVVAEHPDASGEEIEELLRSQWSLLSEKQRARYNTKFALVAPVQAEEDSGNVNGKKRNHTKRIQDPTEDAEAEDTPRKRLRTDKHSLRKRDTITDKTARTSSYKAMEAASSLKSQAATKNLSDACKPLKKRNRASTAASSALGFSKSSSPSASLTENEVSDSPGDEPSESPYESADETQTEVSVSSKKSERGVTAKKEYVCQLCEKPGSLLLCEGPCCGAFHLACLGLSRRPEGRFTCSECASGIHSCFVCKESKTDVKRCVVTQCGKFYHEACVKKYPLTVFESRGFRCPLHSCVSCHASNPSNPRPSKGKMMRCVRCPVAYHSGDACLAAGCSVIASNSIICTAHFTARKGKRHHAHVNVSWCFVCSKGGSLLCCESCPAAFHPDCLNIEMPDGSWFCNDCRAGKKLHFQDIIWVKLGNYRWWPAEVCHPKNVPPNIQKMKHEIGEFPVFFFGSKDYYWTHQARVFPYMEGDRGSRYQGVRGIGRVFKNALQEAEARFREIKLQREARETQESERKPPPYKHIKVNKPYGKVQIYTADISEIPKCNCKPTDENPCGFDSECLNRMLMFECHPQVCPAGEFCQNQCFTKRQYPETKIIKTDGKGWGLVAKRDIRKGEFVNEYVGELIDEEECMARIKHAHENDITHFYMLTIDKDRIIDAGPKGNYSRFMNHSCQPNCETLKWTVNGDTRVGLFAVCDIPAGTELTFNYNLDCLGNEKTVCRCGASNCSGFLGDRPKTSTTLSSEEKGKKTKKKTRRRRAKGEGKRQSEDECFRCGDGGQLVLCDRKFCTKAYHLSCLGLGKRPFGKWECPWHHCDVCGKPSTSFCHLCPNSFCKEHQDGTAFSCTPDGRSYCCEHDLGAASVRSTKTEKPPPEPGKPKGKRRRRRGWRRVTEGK

Cytochrome P450 2C19 = Cytochrome P450 2C19 (Homo sapiens, UniProt P33261); assay: Cytochrome panel assay with activity outcomes. Panel member name: p450-cyp2c19 Compounds with AC50 equal or less than 10 uM are considered active; format: functional
Cytochrome P450 1A2 = target: T2, Cytochrome P450 1A2 (Homo sapiens, UniProt P05177);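 also: PubChem cytochrome P450 panel assay, CYP1A2 panel member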
T2 sequence (P05177 whole entry): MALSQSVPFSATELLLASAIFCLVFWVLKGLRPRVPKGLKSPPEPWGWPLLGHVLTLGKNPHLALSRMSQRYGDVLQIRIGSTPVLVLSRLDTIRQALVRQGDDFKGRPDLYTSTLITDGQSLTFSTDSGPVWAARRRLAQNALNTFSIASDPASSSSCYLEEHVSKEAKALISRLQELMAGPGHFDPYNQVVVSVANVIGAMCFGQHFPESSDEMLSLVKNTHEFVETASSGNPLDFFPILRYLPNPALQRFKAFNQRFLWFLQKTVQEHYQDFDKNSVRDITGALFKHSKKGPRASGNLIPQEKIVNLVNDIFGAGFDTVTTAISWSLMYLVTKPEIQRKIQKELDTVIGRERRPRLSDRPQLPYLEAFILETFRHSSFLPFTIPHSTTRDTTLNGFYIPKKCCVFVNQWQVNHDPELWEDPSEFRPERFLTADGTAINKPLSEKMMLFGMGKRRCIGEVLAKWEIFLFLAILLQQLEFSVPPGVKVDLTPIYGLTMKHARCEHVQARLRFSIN

Cytochrome P450 2C9 = Cytochrome P450 2C9 (Homo sapiens, UniProt P11712)
[3] = target: T3, Calpain-2 catalytic subunit (Sus scrofa, UniProt P43367); assay: pig calpain II inhibitor potency, dose response, biochemical, fluorogenic peptide substrate (AID 1420); format: functional
T3 sequence (P43367 whole entry): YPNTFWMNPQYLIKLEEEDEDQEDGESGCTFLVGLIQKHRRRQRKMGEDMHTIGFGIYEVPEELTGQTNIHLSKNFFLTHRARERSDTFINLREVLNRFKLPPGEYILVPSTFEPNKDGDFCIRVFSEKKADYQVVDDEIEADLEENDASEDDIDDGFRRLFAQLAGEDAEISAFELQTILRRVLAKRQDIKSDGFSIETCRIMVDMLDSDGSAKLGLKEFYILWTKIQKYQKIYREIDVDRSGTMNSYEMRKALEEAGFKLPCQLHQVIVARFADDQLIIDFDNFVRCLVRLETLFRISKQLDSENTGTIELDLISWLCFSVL

[4] = cytotoxicity in HEK-293T cells, dose response, cytotoxicity control for BCR NF-kB inhibitor project, luminescence, B-cell screen hits (AID 489021); format: functional, cell-based;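 also: HEK-293T cells carrying an NF-kB luciferase reporter; cells exposed to compound for about 14 hours before viability readout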
[5] = inhibitors of intracellular T. cruzi replication, confirmation, NIH3T3 host cells, beta-gal luminescence (AID 2044); format: functional, cell-based;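 also: intracellular parasites grown in NIH/3T3 mouse fibroblasts as host cells; luminescent beta-galactosidase reporter signal from transgenic T. cruzi replicating inside host cells; inhibitors lower the luminescence signal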
[6] = cytotoxicity toward NIH3T3 fibroblasts, dose response, counter-screen, cell-based, ATP luminescence, mouse fibroblasts (AID 2010); format: functional;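 also: cells exposed to compound for about 90 hours before reading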
INS1 = assay: beta cell apoptosis inhibitors, cytokine rescue, dose response, luminescence, retest (AID 449756); format: functional, cell-based; conditions: Rattus norvegicus;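 also: cell death triggered by IL-1 beta plus TNF-alpha plus IFN-gamma mixture; protective hits raise ATP signal compared with cytokine alone wells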
Cytochrome P450 2D6 = Cytochrome P450 2D6 (Homo sapiens, UniProt P10635);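 also: CYP2D6 member of a cytochrome P450 panel assay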
[7] = intracellular Trypanosoma cruzi inhibitors in host cells – cell-based, plate reader, cherry-pick samples, set 3, dose response (AID 651818); format: functional;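 also: compounds incubated with infected cells for about four days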
[8] = target: T4, Corticotropin-releasing factor receptor 2/Corticotropin-releasing factor-binding protein (Homo sapiens, UniProt P24387+Q13324); assay: activators of CRF receptor 2 with binding protein – uHTS hits, confirmation (AID 602473); format: functional; conditions: read-out: EC50_Mean
T4 sequence (Q13324 whole entry): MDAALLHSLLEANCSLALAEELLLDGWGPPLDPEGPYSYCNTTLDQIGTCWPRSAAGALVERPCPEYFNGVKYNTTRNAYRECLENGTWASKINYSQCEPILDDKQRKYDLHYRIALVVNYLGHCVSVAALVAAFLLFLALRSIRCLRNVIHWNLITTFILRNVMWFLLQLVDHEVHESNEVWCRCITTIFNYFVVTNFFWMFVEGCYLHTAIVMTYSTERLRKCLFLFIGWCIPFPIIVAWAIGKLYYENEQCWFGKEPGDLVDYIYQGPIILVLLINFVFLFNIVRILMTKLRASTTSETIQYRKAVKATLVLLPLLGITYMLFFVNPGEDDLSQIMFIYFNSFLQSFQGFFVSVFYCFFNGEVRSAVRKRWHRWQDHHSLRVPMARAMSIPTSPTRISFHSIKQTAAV
T4 sequence (P24387 whole entry): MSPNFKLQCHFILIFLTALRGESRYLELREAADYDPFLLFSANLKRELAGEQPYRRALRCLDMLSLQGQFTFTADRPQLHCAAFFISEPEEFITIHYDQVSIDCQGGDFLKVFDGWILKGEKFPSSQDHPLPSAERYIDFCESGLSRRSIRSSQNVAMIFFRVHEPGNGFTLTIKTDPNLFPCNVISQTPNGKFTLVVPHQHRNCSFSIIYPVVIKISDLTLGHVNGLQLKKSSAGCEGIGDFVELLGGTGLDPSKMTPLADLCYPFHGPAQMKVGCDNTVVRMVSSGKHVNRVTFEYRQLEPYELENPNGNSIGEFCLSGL

[9] = P. falciparum Dd2 growth inhibitors, dose response, SYBR Green, cherry-picked samples (AID 1159567); format: functional, cell-based

Chain of Cytochrome P450 2C9 (P11712 whole entry): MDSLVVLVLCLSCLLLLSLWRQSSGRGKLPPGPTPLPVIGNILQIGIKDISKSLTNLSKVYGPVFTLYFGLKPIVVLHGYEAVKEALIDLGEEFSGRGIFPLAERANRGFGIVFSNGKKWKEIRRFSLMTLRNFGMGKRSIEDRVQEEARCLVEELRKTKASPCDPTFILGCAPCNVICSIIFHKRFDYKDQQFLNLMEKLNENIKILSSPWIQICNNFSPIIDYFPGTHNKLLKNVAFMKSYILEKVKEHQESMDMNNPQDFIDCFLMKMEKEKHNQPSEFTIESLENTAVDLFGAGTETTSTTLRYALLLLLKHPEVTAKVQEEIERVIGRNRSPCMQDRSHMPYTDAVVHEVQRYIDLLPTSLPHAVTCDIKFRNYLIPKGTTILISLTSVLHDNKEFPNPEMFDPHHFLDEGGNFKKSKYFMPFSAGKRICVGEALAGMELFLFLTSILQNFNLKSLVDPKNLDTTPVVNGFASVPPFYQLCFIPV
Chain of Cytochrome P450 2C19 (P33261 whole entry): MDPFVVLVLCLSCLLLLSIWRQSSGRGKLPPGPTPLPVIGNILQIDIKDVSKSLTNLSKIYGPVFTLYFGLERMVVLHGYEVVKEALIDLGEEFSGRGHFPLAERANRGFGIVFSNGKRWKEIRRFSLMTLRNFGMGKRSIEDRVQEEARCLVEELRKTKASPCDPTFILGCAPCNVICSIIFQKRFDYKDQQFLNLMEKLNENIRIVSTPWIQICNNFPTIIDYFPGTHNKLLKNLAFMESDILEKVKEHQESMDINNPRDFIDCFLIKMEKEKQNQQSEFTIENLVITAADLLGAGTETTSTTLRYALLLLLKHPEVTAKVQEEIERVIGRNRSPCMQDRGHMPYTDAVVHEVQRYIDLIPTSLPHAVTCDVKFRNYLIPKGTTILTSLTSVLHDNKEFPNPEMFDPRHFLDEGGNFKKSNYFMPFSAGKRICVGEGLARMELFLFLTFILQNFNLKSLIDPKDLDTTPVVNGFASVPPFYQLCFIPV
Chain of G-protein coupled receptor 55 (Q9Y2T6 whole entry): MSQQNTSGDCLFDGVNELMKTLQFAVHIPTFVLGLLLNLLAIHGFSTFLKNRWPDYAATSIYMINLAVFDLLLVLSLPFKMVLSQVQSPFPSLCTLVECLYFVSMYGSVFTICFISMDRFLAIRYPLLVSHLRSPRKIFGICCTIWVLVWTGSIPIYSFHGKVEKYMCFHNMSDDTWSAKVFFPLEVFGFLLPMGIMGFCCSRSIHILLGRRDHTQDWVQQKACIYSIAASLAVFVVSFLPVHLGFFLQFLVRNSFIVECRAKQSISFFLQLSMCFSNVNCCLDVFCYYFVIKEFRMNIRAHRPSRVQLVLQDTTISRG
Chain of Cytochrome P450 2D6 (P10635 whole entry): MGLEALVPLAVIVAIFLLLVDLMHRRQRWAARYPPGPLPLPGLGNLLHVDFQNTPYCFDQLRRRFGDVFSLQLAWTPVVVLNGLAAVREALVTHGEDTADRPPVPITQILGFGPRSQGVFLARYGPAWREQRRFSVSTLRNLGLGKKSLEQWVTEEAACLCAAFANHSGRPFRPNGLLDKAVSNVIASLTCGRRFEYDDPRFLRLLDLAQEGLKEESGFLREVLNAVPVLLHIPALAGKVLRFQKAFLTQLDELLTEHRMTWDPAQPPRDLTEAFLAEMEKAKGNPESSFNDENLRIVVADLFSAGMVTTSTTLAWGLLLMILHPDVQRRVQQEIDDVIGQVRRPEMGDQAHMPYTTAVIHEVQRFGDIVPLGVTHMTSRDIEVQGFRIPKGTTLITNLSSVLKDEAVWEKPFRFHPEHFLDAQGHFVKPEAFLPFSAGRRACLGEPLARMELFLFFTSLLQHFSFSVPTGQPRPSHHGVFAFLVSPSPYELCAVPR

- EC50 [1]: 1.74 µM (active)
Compound: O=C(N[C@H]1CCC(=O)N([C@H](CSc2ccccc2)Cc2ccccc2)CC1)OCc1ccccc1

- AC50 [2]: > 20 µM (inactive)
Compound: CCN(CC)CCCNc1nc(-n2nc(C)cc2C)nc2sc3c(c12)CC(C)(C)OC3

- AC50 (Cytochrome P450 2C19; read-out: AC50): 28.2 µM (inconclusive)
- AC50 (Cytochrome P450 1A2): 39.8 µM (inconclusive)
- AC50 (Cytochrome P450 2C9): inconclusive
Compound: CCOC(=O)c1c(C)c(C(=O)N2CCN(C(=O)c3ccco3)CC2)c(C)n1C

- IC50 [3]: 20.3 µM (not active)
Compound: CC(C)CCN(C(=O)Nc1ccccc1)C(C)c1cccs1 (stereo unspecified)

- AC50 (Cytochrome P450 2C19): inconclusive
- AC50 (Cytochrome P450 2C9): inconclusive
Compound: C[C@@]1(O)CCOC(=O)C1

- AC50 [2]: > 20 µM (inactive)
Compound: O=C(/C=C/c1ccco1)Nc1scc(-c2ccccc2)c1C(=O)O

Compound: Cc1noc(C)c1CSc1nc2nncc-2c(O)n1-c1ccccc1
- IC50 [4]: > 80 µM (inactive)

Compound: CCN=C(S)N(CCc1c(C)[nH]c2ccc(Cl)cc12)Cc1ccco1
- EC50 [5]: 2.81 µM (active)
- IC50 [3]: 9.05 µM (not active)
- EC50 [6]: > 60 µM (not active)

- IC50 [3]: > 50 µM (not active)
Compound: CCCC(=O)Nc1ccccc1NC(=O)CCC

Compound: CC(=O)c1c(C)[nH]c(C(=O)OCc2cccc(Cl)c2)c1C
- IC50 [3]: 7.75 µM (not active)
- AC50 (INS1): 20 µM (active)

Compound: COc1ccc(NS(=O)(=O)c2cc(NC(=O)c3cc(=O)c4ccccc4o3)ccc2OC)cc1
- IC50 [4]: > 80 µM (inactive)

- AC50 (Cytochrome P450 2C19; read-out: AC50): 20 µM (inconclusive)
- AC50 (Cytochrome P450 2C9): inconclusive
Compound: CN(C)c1ccc(-c2nc(N(C)Cc3ccco3)c3ccccc3n2)cc1

- AC50 (Cytochrome P450 2C9): inconclusive
Compound: COc1ccccc1CNC(=O)CCCn1c(=O)c2ccccc2n(CC(=O)NC2CCCC2)c1=O

- AC50 (Cytochrome P450 1A2): 20 µM (inconclusive)
- AC50 (Cytochrome P450 2C9): inconclusive
Compound: COCCNc1ccnc(-c2ccccc2C(F)(F)F)n1

Compound: CC(=C\c1ccccc1)/C=C1/SC(=O)N(CCCC(=O)Nc2ccc(C(=O)O)cc2)C1=O
- IC50 [4]: > 80 µM (inactive)

- AC50 [2]: 6.95 µM (active)
Compound: CC(=O)Nc1ccc(Sc2ccccc2C(=O)O)cn1

- AC50 [2]: > 20 µM (inactive)
Compound: CCN(CC)CCCNc1nc(CN2CCOCC2)nc2sc3c(c12)CCC3

- IC50 [3]: > 50 µM (not active)
Compound: Cc1cccc(N2CCN(C(=O)CN3C(=O)C4CC=CCC4C3=O)CC2)c1C (stereo unspecified)

Compound: CCN(CC(=O)Nc1c(F)cccc1F)C(=O)c1cc([N+](=O)[O-])ccc1N1CCCCC1
- IC50 [4]: > 80 µM (inactive)

- AC50 (Cytochrome P450 2D6): 39.8 µM (inconclusive)
- AC50 (Cytochrome P450 2C9): inconclusive
Compound: O=S(=O)(NCc1cc(-c2ccccc2Cl)no1)c1ccccc1

Compound: COc1ccc(NC(=O)Nc2cccc3c2O[C@H](CN(C)S(=O)(=O)c2ccc(F)cc2)[C@@H](C)CN([C@H](C)CO)C3=O)cc1
- AC50 [7]: 20 µM (inactive)

- IC50 [3]: 3.12 µM (not active)
Compound: C/C(=N\NC(=S)NC1CCCCC1)c1ccc(OC(F)F)cc1OC(F)F

- IC50 [3]: 7.59 µM (not active)
- EC50 [8]: > 53 µM (inactive)
Compound: CCOc1ccc(/C=N/OCC(=O)NC(c2ccccc2)c2ccccc2)cc1

Compound: C[C@@H]1CCCCO[C@H](CN(C)CC2CCCCC2)[C@@H](C)CN([C@H](C)CO)C(=O)c2cc(NC(=O)Nc3ccc4c(c3)OCO4)ccc2O1
- AC50 [7]: 1.96 µM (active)

Compound: Cc1ccc(S(=O)(=O)N(C)C[C@H]2OCCCC[C@@H](C)Oc3ccc(NS(=O)(=O)c4ccc(Cl)cc4)cc3C(=O)N([C@H](C)CO)C[C@@H]2C)cc1
- AC50 [7]: 3.91 µM (active)

Compound: C[C@@H]1CN([C@H](C)CO)C(=O)Cc2cc(NC(=O)Cc3ccccc3)ccc2O[C@H]1CN(C)Cc1ccc(C(F)(F)F)cc1
- AC50 [7]: 5.77 µM (active)

Compound: C[C@@H]1CN([C@@H](C)CO)C(=O)c2cccc(NC(=O)Nc3ccc(C(F)(F)F)cc3)c2O[C@H]1CN(C)Cc1ccc2c(c1)OCO2
- AC50 [7]: 1.34 µM (active)

Compound: C[C@@H]1CN([C@H](C)CO)C(=O)Cc2cc(NS(=O)(=O)c3ccc(Cl)cc3)ccc2O[C@H]1CN(C)Cc1ccc(Oc2ccccc2)cc1
- AC50 [7]: 4.56 µM (active)

Compound: CCC(=O)N1C[C@H](C)[C@H](OC)CN(C)C(=O)c2cc(NC(=O)Nc3cccc(F)c3)ccc2OC[C@@H]1C
- AC50 [9]: 9.89 µM (active)

Compound: O=C(C[C@H]1C[C@H]2c3cc(NC(=O)Nc4ccccc4)ccc3O[C@H]2[C@@H](CO)O1)NC1CCCC1
- AC50 [9]: 6.1 µM (active)

Compound: O=C(C[C@@H]1CC[C@@H]2[C@H](COC[C@@H](O)CN2C(=O)c2ccccc2F)O1)NCc1ccc(-c2ccccc2)cc1
- AC50 [9]: 6.33 µM (active)

Compound: COc1cccc(S(=O)(=O)N(C)C[C@@H]2Oc3ncc(C#Cc4ccc(C(F)(F)F)cc4)cc3C(=O)N([C@H](C)CO)C[C@@H]2C)c1
- AC50 [9]: 4.11 µM (active)

Compound: CN(C)c1cc[n+](Cc2c(Cl)cccc2Cl)cc1
- IC50 [4]: > 80 µM (inactive)
- AC50 (INS1): 3.85 µM (active)

- AC50 (Cytochrome P450 2C9): inconclusive
Compound: Nc1ccccc1S(N)(=O)=O

- AC50 (Cytochrome P450 2C9): inconclusive
Compound: COC(=O)Nc1nc2ccc(C(=O)c3ccccc3)cc2[nH]1 [MEBENDAZOLE]
